Assays:
[1] = system: Salmonella typhimurium TA98; experiment: Reverse mutation test (Ames test), TA98; type: cell-based
Procedure: (§1) In order to examine gene mutagenicity of Compounds 3, 5 and 8, reverse mutation test using Salmonella typhimurium TA98 and TA100 (hereinafter referred to as Ames test) was conducted.
(§2) The test was conducted without addition of S9mix and with addition of S9mix. Dimethylsulfoxide (hereinafter referred to as DMSO) was used as a negative control. A positive control was 2-(2-furyl)-3-(5-nitro-2-furyl)acrylamide (hereinafter referred to as AF-2) in case S9mix was not added, and 2-aminoanthracene (hereinafter referred to as 2-AA) in case S9mix was added.
(§3) As a sample solution to be added to a test plate, each compound was dissolved in DMSO to prepare a solution at a concentration of 50 mg/mL, and further, each solution was diluted with DMSO to prepare a solution with 7 dosage (geometric ratio 3). As a sample solution for preparing a sample of positive control, when TA98 was used as a test strain without addition of S9mix, a solution of AF-2 (compound concentration: 1 μg/mL) in DMSO was prepared; when TA100 was used as a test strain without addition of S9mix, a solution of AF-2 (compound concentration: 0.1 μg/mL) in DMSO was prepared; when TA98 was used as a test strain with addition of S9mix, a solution of 2-AA (compound concentration: 5 μg/mL) in DMSO was prepared; and when TA100 was used as a test strain with addition of S9mix, a solution of 2-AA (compound concentration: 10 μg/mL) in DMSO was prepared.
(§4) After each sample solution to be examined and a test strain (TA98 or TA100) were mixed together so as to make the addition amount of each sample to be 0.1 mL/plate, the mixture was multilayered using soft agar on a medium of a test plate, and then incubated at 37° C. for 48 hours. Separately, after each sample solution to be examined, S9mix and a test strain were mixed together so as to make the addition amount of each sample to be 0.1 mL/plate, the mixture was multilayered using soft agar on a medium of a test plate, and then incubated at 37° C. for 48 hours. On the other hand, only DMSO was used as a sample solution to perform the same procedure as above for the negative control. […]

[2] = system: Salmonella typhimurium TA100; experiment: Reverse mutation test (Ames test), TA100; type: cell-based
Procedure: as §1, §2, §3, §4

[3] = system: bone marrow cells of Crlj:CD1(ICR) male mouse; experiment: Micronucleus test; type: in vivo; conditions: single oral administration 250-2000 mg/kg, 24 and 48 hours
Procedure: In order to study mutagenicity (in vivo) of Compounds 3 and 7, induction of micronucleated polychromatic erythrocyte (hereinafter referred to as MNPCE) was examined using bone marrow cells of Crlj:CD1(ICR) male mouse.
0 mg/kg (negative control group), 250, 500, 1000 and 2000 mg/kg (test sample group) were set as doses for the test. Mice were sacrificed 24 and 48 hours after single oral administration, and bone marrow smear was prepared and observed. Further, a single dose of MMC at 2 mg/kg was abdominally administrated in positive control group, mice were sacrificed 24 hours after the administration, and then bone marrow smear was prepared and observed.
As statistical analysis, significance tests were conducted by Wilcoxon rank sum test for the appearance frequency of MNPCE and the ratio of polychromatic erythrocyte (hereinafter referred to as PCE) to the total red blood cell (hereinafter referred to as RBC) in each administration group concerning the test sample and positive control groups relative to the negative control group and concerning these groups relative to each other where the significance level was set to less than 5% and less than 1%, respectively.

[4] = Partition coefficient based on the octanol extraction method; type: physicochemical; conditions: octanol / 10 mmol/L phosphate buffer (pH 7.4)
Procedure: Partition coefficients based on the octanol extraction method (hereinafter referred to as log Poctanol) were measured, which are generally known as an indicator of permeability of compounds through the blood-brain barrier (hereinafter referred to as BBB).
A diethyl ether solution of Compound 1 prepared in Example 3 (Example 8), a diethyl ether solution of Compound 2 prepared in Example 6 (Example 9), and a diethyl ether solution of [^123I]-IMPY prepared in Reference Example 1 (Comparative Example 4) were each diluted with 10 mg/mL ascorbic acid-containing physiological saline solution, and adjusted to a radioactive concentration of 20-30 MBq/mL. To 2 mL of octanol, 10 μL each of the prepared sample solutions was added, 2 mL of 10 mmol/L phosphate buffer (pH 7.4) was added, followed by stirring for 30 seconds. After the mixture was centrifuged with a low-speed centrifuge (2000 rpm×60 min.), the octanol layer and the water layer were sampled each in an amount of 1 mL, and subjected to measurement of radioactivity count with an autowell gamma system (Type: ARC-301B, manufactured by Aloka). Using the obtained radioactivity count, log Poctanol was calculated in accordance with the equation (2).
A diethyl ether solution (Example 20) of Compound 4 prepared in Example 16, a diethyl ether solution (Example 21) of Compound 6 prepared in Example 19, and a diethyl ether solution (Comparative Example 7) of [^123I]-IMPY were each diluted with a 10 mg/mL ascorbic acid-containing physiological saline solution to adjust to a radioactive concentration of 20-30 MBq/mL. To 2 mL of octanol, 10 μL each of the prepared sample solution was added, and 2 mL of 10 mmol/L phosphate buffer (pH 7.4) was further added, followed by stirring for 30 seconds. After the mixture was centrifuged with a low-speed centrifuge (2000 rpm×60 min.), the octanol layer and the water layer were sampled each in an amount of 1 mL, and subjected to measurement of radioactivity count with an autowell gamma system (Type: ARC-301B, manufactured by Aloka). Using the obtained radioactivity count, logPoctanol was calculated in accordance with the equation (4).

[5] = Transferability into brain and clearance; type: in vivo, male Wistar rats; conditions: intravenous injection, rats
Procedure: Using Compound 1 (Example 10) and Compound 2 (Example 11), a time course change of radioactive accumulation in brain of male Wistar rats (7-week old) was measured.
A diethyl ether solution of Compound 1 (Example 10) prepared in Example 3, a diethyl ether solution of Compound 2 (Example 11) prepared in Example 6 and a diethyl ether solution of [^123I]-IMPY (Comparative Example 5) prepared in Reference Example 1 were each diluted with 10 mg/mL ascorbic acid-containing physiological saline solution to adjust to a radioactive concentration of 8-12 MBq/mL. 0.05 mL each of the prepared sample solutions was injected under thiopental anesthesia into the tail vein of the rats. The rats were sacrificed by bleeding from abdominal artery, and brains were removed and subjected to measurement of mass of brains and further subjected to measurement of radioactivity (hereinafter referred to as A in this Example) with a single channel analyzer (detector type: SP-20 manufactured by OHYO KOKEN KOGYO Co., Ltd.) 2, 5, 30 and 60 minutes after the injection. Further, the radioactivity level of the rest of the whole body was measured in the same manner as above (hereinafter referred to as B in this Example). Using these measurement results, radioactive distribution per unit weight of brain (% ID/g) at the respective time points were calculated in accordance with the following formula (3).
Three animals were used for the experiment at the respective time points.
Using Compound 4 and Compound 6, a time course change of radioactive accumulation in brain of male Wistar rats (7-week old) was measured.
Compound 4 (Example 22), Compound 6 (Example 23) and a solution of [^123I]-IMPY (Comparative Example 8) prepared above in Reference Example 1 were each diluted with a 10 mg/mL ascorbic acid-containing physiological saline solution to prepare solutions (20-31 MBq/mL in radioactive concentration). 0.05 mL each of the prepared sample solutions was injected under thiopental anesthesia into the tail vein of the respective Wistar rat (7-week old). The rats were sacrificed by bleeding from abdominal artery, and brains were removed and subjected to measurement of mass of brains and further subjected to measurement of radioactivity (hereinafter referred to as A in this Example) with a single channel analyzer (detector type: SP-20 manufactured by OHYO KOKEN KOGYO Co., Ltd.) 2, 5, 30 and 60 minutes after the injection. Further, the radioactivity level of the rest of the whole body was measured in the same manner as above (hereinafter referred to as B in this Example). Using these measurement results, radioactive distribution per unit weight of brain (% ID/g) at the respective time points were calculated in accordance with the following formula (5).

[6] = target: T1, aggregated Aβ (Aβ1-40) injected into amygdaloid nucleus (Homo sapiens, UniProt P05067); experiment: Ex vivo autoradiogram using rats of amyloid injected model (Aβ1-40); type: in vivo, male Wistar rat; conditions: brain slice 60 minutes after tail vein injection
T1 construct: Aβ1-40 (manufactured by Peptide Institute, INC.) was dissolved in phosphate buffer (pH 7.4); purchased Peptide Institute, INC
T1 sequence (P05067 672-711): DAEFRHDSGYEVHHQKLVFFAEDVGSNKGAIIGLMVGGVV
Procedure: (1) Aβ1-40 (manufactured by Peptide Institute, INC.) was dissolved in phosphate buffer (pH 7.4) and shaken at 37° C. for 72 hours, to obtain a 1 mg/mL suspension of aggregated Aβ (hereinafter referred to as amyloid suspension in this Example).
(2) 2.5 μL (corresponding to […]) of the amyloid suspension was injected into an amygdaloid nucleus on one side of a male Wistar rat (7-week old). As a control, 2.5 μL of a phosphate buffered physiological saline solution (pH 7.4) was injected into an amygdaloid nucleus on the other side of the rat. The rats were examined 1 day after the injection of the amyloid suspension and the phosphate buffered physiological saline solution (pH 7.4).
(3) [^123I]-IMPY was dissolved in a 10 mg/mL ascorbic acid-containing physiological saline solution to obtain a sample solution (29 MBq/mL in radioactivity concentration in the sample solution). This solution was injected under thiopental anesthesia into the rat through the tail vein (dosage: 0.5 mL, dosed radioactivity: 14.5 MBq equivalent).
(4) Brain was removed 60 minutes after the injection to prepare a brain slice of 10 μm in thickness with a microtome (type: CM3050S, manufactured by LEICA). The brain slice was exposed to an imaging plate for 20 hours, and then image analysis was carried out by use of a Bio-imaging Analyzer (type: BAS-2500; manufactured by FUJIFILM Corporation). […]

[7] = [^11C]-labeled, rats; cited from earlier work
[8] = target: T2, aggregated Aβ (Aβ1-42) amyloid (Homo sapiens, UniProt P05067); experiment: In vitro binding test: inhibition of [^125I]3′-I-BTA-0 binding to amyloid
T2 construct: Aβ1-42 (manufactured by Wako) was dissolved in phosphate buffer (pH 7.4); purchased Wako
T2 sequence (P05067 672-713): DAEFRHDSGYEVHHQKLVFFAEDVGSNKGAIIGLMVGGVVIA
Procedure: Affinity of the present compounds with amyloid was examined by the following in vitro binding tests.
The measured radioactivity level was defined as the background radioactivity level, and used in the calculation of the inhibition ratio (hereinafter referred to as BG).
(9) Using the radioactivity levels measured above in (7) and (8), the inhibition ratio was determined by the following formula (1).
A graph in which values converted by probit transformation from the obtained inhibition ratios were plotted relative to logarithms of concentrations of compounds for evaluation was prepared to obtain an approximate straight line by the least square method.

[9] = TA98, without addition of S9mix
[10] = TA100, without addition of S9mix

For `OCCCOc1ccc(-c2cn3cc(I)ccc3n2)cc1` [Compound 7, 2-[4′-(3″-hydroxypropoxy)phenyl]-6-iodoimidazo[1,2-a]pyridine], the Mutagenicity ([1]; TA98, with addition of S9mix) was “Negative”, the Mutagenicity [1, 9] was “Negative” and the Mutagenicity ([2]; TA100, with addition of S9mix) was “Negative”. The Mutagenicity [2, 10] was “Negative” and the “Mutagenicity (in vivo), induction of MNPCE” value [3] was “negative”.
For `CN(C)c1ccc(-c2cn3cc([123I])ccc3n2)cc1` [[^123I]-IMPY, reference compound], the logPoctanol value ([4]; Table 4, Examples 8-9) was 1.9, the logPoctanol value ([4]; Table 6, Examples 20-21) was 2.1 and the “Radioactive distribution per unit weight of brain” value ([5]; After 2 min., Table 5) was 1.19 % ID/g. For the same compound, the “Radioactive distribution per unit weight of brain” value ([5]; After 2 min., Table 7) was 1.19 % ID/g, the “Radioactive distribution per unit weight of brain” value ([5]; After 5 min., Table 5) was 0.97 % ID/g and the “Radioactive distribution per unit weight of brain” value ([5]; After 5 min., Table 7) was 0.97 % ID/g. For the same compound, the “Radioactive distribution per unit weight of brain” value ([5]; After 30 min., Table 5) was 0.23 % ID/g, the “Radioactive distribution per unit weight of brain” value ([5]; After 30 min., Table 7) was 0.23 % ID/g and the “Radioactive distribution per unit weight of brain” value ([5]; After 60 min., Table 5) was 0.09 % ID/g. For the same compound, the “Radioactive distribution per unit weight of brain” value ([5]; After 60 min., Table 7) was 0.09 % ID/g and the “Accumulation of radioactivity in amygdaloid nucleus on the amyloid-injected side” value [6] was “marked accumulation of radioactivity”.
For `CNc1ccc(/C=C/c2ccc(O)cc2)cc1` [SB-13, (E)-4-methylamino-4′-hydroxystilbene], the “Clearance from normal tissues” value [7] is listed as “it cannot be said that the clearance is sufficiently fast”.
In the case of `OCCOc1ccc(-c2cn3cc(I)ccc3n2)cc1` [Compound 3, 2-[4′-(2″-hydroxyethoxy)phenyl]-6-iodoimidazo[1,2-a]pyridine], the IC50 ([8]; [^125I]3′-I-BTA-0 400 pmol/L, amyloid 1 μmol/L, 22° C., 3 hours) is reported as 0.0669 µM, the IC50 ([8]; unit inferred) is reported as less than 0.1 µM and the Mutagenicity ([1]; TA98, with addition of S9mix) is reported as “Negative”. The Mutagenicity [1, 9] was “Negative”, the Mutagenicity ([2]; TA100, with addition of S9mix) was “Negative” and the Mutagenicity [2, 10] was “Negative”. The “Mutagenicity (in vivo), induction of MNPCE” value [3] was “negative”.

— patent publication US20100249419A1, “UTILIZATION OF NOVEL COMPOUNDS WITH AMYLOID AFFINITY AND METHOD OF PRODUCING THE SAME” (NIHON MEDI-PHYSICS CO., LTD., priority 2007, published 2010)
